# Test results from paper PMC8459971, “Evaluation of the hepatotoxicity of the novel GPR40 (FFAR1) agonist CPL207280 in the rat and monkey” (PLoS ONE, 2021).
# Where “and” joins values, the source holds several entries; their conditions need not be identical. Equal values may be shown once. Entries after “also recorded” stand apart in the source; their conditions may differ. Read-outs that look alike come from different tables or passages of the source. Marks after values point to notes of the source that are not given here.
# Tests used:
# [1] = Metabolite profiling, human hepatocytes; format: in vitro ADME
# Experimental: (§1) Suspensions of cryopreserved human, rat, and monkey hepatocytes were pooled from a minimum of three individuals. All cryopreserved hepatocytes were purchased from a commercial supplier. […] The cell density was 0.5 ×10^6 viable cells/mL. The final DMSO concentration during the incubation was 0.25%. Control incubations were performed in lysed cells to reveal any non-enzymatic degradation. Two control compounds were identified in each species. Samples (50 μL) were removed from the incubation mixture at 0, 10, 20, 40, 60, and 120 min and added to methanol containing an internal standard (100 μL) to stop the reaction. The samples were centrifuged (4000 x g at 4°C for 30 min) and the supernatants at each time point were pooled for analysis by LC MS/MS using Cyprotex generic methods. Following hepatocyte stability assays, the samples were utilized for metabolite profiling. […] Metabolites were characterized using a mass spectrometer comprising Waters Xevo QT of G2-S, Acquity Binary Solvent Manager, Acquity Column Manager, and 2777 Autosampler.
# [2] = Stability in cryopreserved hepatocytes, human; format: in vitro ADME; conditions: for Compound Remaining (% of 0 min): Hepatocyte Stability Human, single replicates
# Experimental: The final incubation volume was 500 μL. Two control compounds (verapamil and donepezil) were included for each microsomal species, along with the appropriate vehicle control. The reactions were terminated by transferring 50 μL of incubate to 100 μL methanol containing an internal standard (metoprolol) at appropriate time points (0, 10, 20, 40, 60, and 120 min for the test compound and 0, 5, 10, 20, 40, and 60 min for the control compounds). The termination plates were centrifuged at 4000 x g at 4°C for 30 min to precipitate the protein. The supernatants were then collected for analysis, and LC-MS/MS was used for detection purposes. The system consisted of an Acquity™ Binary Solvent Manager, Acquity™ 4-position heated column manager, 2777 Ultra High Pressure Autosampler, and a Xevo-TQ MS triple quadrupole mass spectrometer (Waters Ltd., Herts, UK). This process was carried out twice.
# [3] = Metabolite profiling, monkey hepatocytes; format: in vitro ADME; conditions: 10 μM CPL207280, 60 min, ND = not detected
# Experimental: as §1
# [4] = Repeat-dose study in healthy Wistar Han rats, safety (14 and 56 days); format: in vivo, rat
# [5] = Single-dose pharmacokinetics in monkeys (p.o. and i.v.); format: in vivo, monkey; conditions: for bioavailability: p.o. vs i.v., read-out: F (bioavailability)
# [6] = target: T1, NTCP (Homo sapiens, UniProt Q14973); conditions: read-out: Inhibition of NTCP, previously reported IC50; cited from earlier work
# T1 construct: expressed in transfected cells; host or cells: HEK cells
# T1 sequence (Q14973 1-349): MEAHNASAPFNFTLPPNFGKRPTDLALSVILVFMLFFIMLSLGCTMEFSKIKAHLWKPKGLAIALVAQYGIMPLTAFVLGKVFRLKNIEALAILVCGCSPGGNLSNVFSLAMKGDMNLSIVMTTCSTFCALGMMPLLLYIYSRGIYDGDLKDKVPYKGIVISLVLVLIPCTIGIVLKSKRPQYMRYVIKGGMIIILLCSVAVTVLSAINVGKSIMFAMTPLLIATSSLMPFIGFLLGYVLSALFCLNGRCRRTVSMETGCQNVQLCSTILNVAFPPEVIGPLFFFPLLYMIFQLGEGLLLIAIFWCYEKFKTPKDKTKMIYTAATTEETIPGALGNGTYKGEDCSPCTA
# [7] = cited from earlier work; for AUC24h (Mean) / Cmax (Mean): rat; for exposure in plasma (AUC): rats
# [8] = cited from earlier work
# [9] = cryopreserved hepatocytes (suspension), Human hepatocytes, mean n = 2
# [10] = 14-day toxicology study in rats
smiles,measurement,setting,value
CC#C[C@@H](CC(=O)O)c1ccc(OCC(C)=C(C)C)cc1 [CPL207280],number of metabolites produced by human hepatocytes,"[1]; human hepatocytes, 10 μM",12
same,human % of parent at 60 min,"[1]; human hepatocytes, 10 μM CPL207280, 60 min, ND = not detected",8.49%
same,number of metabolites identified,"[1]; in all species (humans, rats, mice, monkeys, dogs), hepatocytes, 10 μM",23
same,Acyl glucuronide presence in human hepatocytes,[1]; summary table,No
same,Compound Remaining (% of 0 min),[2]; 0 min,100 % of 0 min
same,Compound Remaining (% of 0 min),[2]; 10 min,73.2 % of 0 min and 74.0 % of 0 min
same,Compound Remaining (% of 0 min),[2]; 20 min,42.2 % of 0 min and 46.1 % of 0 min
same,Compound Remaining (% of 0 min),[2]; 40 min,20.6 % of 0 min and 16.0 % of 0 min
same,Compound Remaining (% of 0 min),[2]; 60 min,10.5 % of 0 min and 7.67 % of 0 min
same,Compound Remaining (% of 0 min),[2]; 120 min,3.07 % of 0 min and 1.62 % of 0 min
same,half-life at 3 μM,[2]; [9],17 min
same,microsomal CLint at 3 μM,[2]; [9],82.8 µL/min/mg
same,monkey % of parent at 60 min,[3],7.25%
same,MTD at 14 days,"[4]; both sexes, Wistar Han, rat, in vivo, oral, rats, 14-day study, read-out: maximum tolerated dose (MTD)",600 mg/kg
same,mortality,"[4]; rats, 1200 mg/kg group, 14-day study",death of one subject occurred on day 7
same,ALT,"[4]; rats, 1200 mg/kg, 14 days, fasted blood, significant increase from 34.2±8.5, in U/L (unit assumed)",60.0±8.0
same,ALP,"[4]; rats, 1200 mg/kg, 14 days, fasted blood, significant increase from 86.3±30.2, in U/L (unit assumed)",136.1±55.3
same,"ALT, AST and ALP","[4]; rats, 14-day study, doses up to 600 mg/kg","no ALT, AST, and ALP elevation"
same,liver histopathology,"[4]; rats, 14 days",no microscopic changes in the liver tissue
same,liver histopathology,"[4]; rats, 56 days",mild to moderate hypertrophy of centrilobular hepatocytes at doses ≥ 150 mg/kg/day; also recorded: minimal to mild centrilobular hepatocyte hypertrophy
same,"liver injury markers, TBA and T-BIL","[4]; rats, 56 days, 50, 150 and 500 mg/kg",none of the previously monitored markers nor TBA and T-BIL were altered
same,reversibility of hepatocyte hypertrophy / liver weight increase,"[4]; rats, 56 days, recovery period",reversible after 28 days
same,liver mass as a percentage of body weight,"[4]; rats, all groups (300, 600, 1200 mg/kg/day), 14 days",dose-dependent enlargement of the liver
same,Propensity to elevate liver enzyme damage markers,"[4]; summary comparison CPL207280 vs TAK-875 (TAK-875: ref 25), sign spans both columns",<
same,Propensity to elevate bile acids and bilirubin in plasma,[4]; summary table,No
same,Cmax,"[5]; cynomolgus, monkey, plasma, 6 mg/kg, monkey, dose 6 mg/kg, Day 1, individual animals",199 ng/mL
same,plasma conc,"[5]; monkey, 0,5 mg/kg i.v., 0.5 h, single animals",643.5 and 572.2
same,plasma conc,"[5]; monkey, 0,5 mg/kg i.v., 1 h, single animals",149.8 and 119.5
same,plasma conc,"[5]; monkey, 0,5 mg/kg i.v., 2 h, single animals",95.2 and 24.4 and 69.6
same,plasma conc,"[5]; monkey, 0,5 mg/kg i.v., 4 h, single animals",49.5 and 52.7 and 23.2
same,plasma conc,"[5]; monkey, 0,5 mg/kg i.v., 6 h, single animals",17.1 and 41 and 11.9
same,plasma conc,"[5]; monkey, 0,5 mg/kg i.v., 8 h, single animals",17.5 and 13.5
same,plasma conc,"[5]; monkey, 0,5 mg/kg i.v., 12 h, single animals",6.2 and 10.5 and 4
same,plasma conc,"[5]; monkey, 0,5 mg/kg i.v., 24 h, single animals",1.1 and 1.6 and 0
same,plasma conc,"[5]; monkey, 1,5 mg/kg p.o., 0 h, single animals",0
same,plasma conc,"[5]; monkey, 1,5 mg/kg p.o., 0.5 h, single animals",806.5 and 1491 and 408.8
same,plasma conc,"[5]; monkey, 1,5 mg/kg p.o., 1 h, single animals",1309.1 and 1299.9
same,plasma conc,"[5]; monkey, 1,5 mg/kg p.o., 2 h, single animals",1251.6 and 605.2 and 1177.7
same,plasma conc,"[5]; monkey, 1,5 mg/kg p.o., 4 h, single animals",75.2 and 203.9 and 54.2
same,plasma conc,"[5]; monkey, 1,5 mg/kg p.o., 8 h, single animals",31 and 109.7 and 13.2
same,plasma conc,"[5]; monkey, 1,5 mg/kg p.o., 12 h, single animals",13.7 and 53.4 and 8.1
same,plasma conc,"[5]; monkey, 1,5 mg/kg p.o., 24 h, single animals",1.6 and 5.3 and 0
same,exposure - AUC,"[5]; monkey, dose 6 mg/kg, Day 1, individual animals, 6 mg/kg",31.225 µg·h/mL and 16.287 µg·h/mL
same,AUC,"[5]; monkey, plasma, 6 mg/kg, monkey, dose 6 mg/kg, Day 1, individual animals, read-out: exposure - AUC",18.2 µg·h/mL
same,concentration at 0.5 h,"[5]; monkey, plasma, intravenous, 0.5 mg/kg, monkey, 0,5 mg/kg i.v., 0.5 h, single animals, read-out: plasma conc",704 ng/mL
same,concentration at 1 h,"[5]; monkey, plasma, intravenous, 0.5 mg/kg, monkey, 0,5 mg/kg i.v., 1 h, single animals, read-out: plasma conc",198 ng/mL
same,concentration at 8 h,"[5]; monkey, plasma, intravenous, 0.5 mg/kg, monkey, 0,5 mg/kg i.v., 8 h, single animals, read-out: plasma conc",10.2 ng/mL
same,k el,"[5]; monkey, plasma, intravenous, monkeys, single dose",5.56e-05 s⁻¹
same,Cmax,"[5]; monkey, plasma, iv, 0.5 mg/kg, monkeys, 0,5 mg/kg i.v., n = 3",3120 ± 161 ng/mL
same,Tmax,"[5]; monkey, plasma, iv, 0.5 mg/kg, monkeys, 0,5 mg/kg i.v.",4.98 min
same,AUC,"[5]; monkey, plasma, iv, 0.5 mg/kg, monkeys, 0,5 mg/kg i.v., read-out: AUC",1.37 ± 0.194 µg·h/mL
same,concentration at 0 h,"[5]; monkey, plasma, oral, 1.5 mg/kg, monkey, 1,5 mg/kg p.o., 0 h, single animals, read-out: plasma conc",0 ng/mL
same,concentration at 1 h,"[5]; monkey, plasma, oral, 1.5 mg/kg, monkey, 1,5 mg/kg p.o., 1 h, single animals, read-out: plasma conc",2250 ng/mL
same,bioavailability,"[5]; monkey, plasma, oral, 1.5 mg/kg, monkeys",~99%
same,Cmax,"[5]; monkey, plasma, po, 1.5 mg/kg, monkeys, 1,5 mg/kg p.o., n = 3",1680 ± 502 ng/mL
same,Tmax,"[5]; monkey, plasma, po, 1.5 mg/kg, monkeys, 1,5 mg/kg p.o.",60 min
same,AUC,"[5]; monkey, plasma, po, 1.5 mg/kg, monkeys, 1,5 mg/kg p.o., read-out: AUC",4.06 ± 0.794 µg·h/mL
same,bioavailability,"[5]; monkey, plasma, po, 1.5 mg/kg, monkeys",99%
"Cc1cc(OCCCS(C)(=O)=O)cc(C)c1-c1cccc(COc2ccc3c(c2)OC[C@H]3CC(=O)O)c1 [TAK-875, fasiglifam, reference compound]",IC50,[6],4.6 µM
same,effect on ALT,[7]; [10],significantly increased ALT at doses of 200 and 600 mg/kg after seven days
same,effect on TBA and T-BIL,[7]; [10],increased TBA and T-BIL levels at a dose of 600 mg/kg
same,AUC24h (Mean),"[7]; Day 1, Dose 200 mg/kg/day",1210000* ng x hr/mL
same,Cmax (Mean),"[7]; Day 1, Dose 200 mg/kg/day",296000* ng/ml
same,AUC24h (Mean),"[7]; Day 1, Dose 600 mg/kg/day",2010000* ng x hr/mL
same,Cmax (Mean),"[7]; Day 1, Dose 600 mg/kg/day",465000* ng/ml
same,AUC24h (Mean),"[7]; Day 14, Dose 200 mg/kg/day",3740000* ng x hr/mL
same,Cmax (Mean),"[7]; Day 14, Dose 200 mg/kg/day",271000* ng/ml
same,AUC24h (Mean),"[7]; Day 14, Dose 600 mg/kg/day",6610000* ng x hr/mL
same,Cmax (Mean),"[7]; Day 14, Dose 600 mg/kg/day",383000* ng/ml
same,exposure in plasma (AUC),"[7]; 200 mg/kg, day 1",1210 µg·h/mL
same,exposure in plasma (AUC),"[7]; 200 mg/kg, day 14",3740 µg·h/mL
same,exposure in plasma (AUC),"[7]; 600 mg/kg, day 1",2010 µg·h/mL
same,exposure in plasma (AUC),"[7]; 600 mg/kg, day 14",6610 µg·h/mL
same,Accumulation in rat plasma after repeat dose,[7]; summary table,Yes
same,Propensity to elevate bile acids and bilirubin in plasma,[7]; summary table,Yes
same,plasma protein binding (PPB),[8],> 99.4%
